Test results from PubChem BioAssay (NCI).
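How tested: cells in 96-well plates exposed to compound for 48 hours at five concentrations. Abbreviation: GI50, concentration required for 50% inhibition of growth. TGI denotes the concentration required for complete inhibition of growth.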

Legend:
Assay in all cases: NCI-60 cell line screen, 48 h
[1] = system: M14 melanoma
[2] = system: HCC-2998 colon
[3] = system: SNB-75 CNS
[4] = system: OVCAR-5 ovarian
[5] = system: KM12 colon
[6] = system: CCRF-CEM leukemia
[7] = system: SK-MEL-28 melanoma
[8] = system: 786-0 renal
[9] = system: SK-MEL-2 melanoma
[10] = system: HOP-62 NSCLC

| Compound | TGI [1] | TGI [2] | TGI [3] | TGI [4] | TGI [5] | TGI [6] | TGI [7] | TGI [8] | TGI [9] | TGI [10] | GI50 [1] | GI50 [2] | GI50 [3] | GI50 [4] | GI50 [5] | GI50 [6] | GI50 [7] | GI50 [8] | GI50 [9] | GI50 [10] |
| --- | --- | --- | --- | --- | --- | --- | --- | --- | --- | --- | --- | --- | --- | --- | --- | --- | --- | --- | --- | --- |
| COc1c(Cl)cc(NC(=S)C#N)cc1Cl | 64.4 µM | 32.6 µM | 67.4 µM | > 100 µM | 85.6 µM | > 100 µM | > 71.4 µM | 88.2 µM | 86.2 µM | > 50.9 µM |  |  |  |  |  |  |  |  |  |  |
| CC1(C)[C@@H](OC(N)=O)[C@H]2O[C@H]2[C@]2(CO)[C@H]3CC[C@]4(C)[C@@H](c5ccc(=O)oc5)[C@@H](Cl)C[C@]4(O)C3=CC[C@@H]12 | 0.0558 µM | 0.107 µM | 0.0138 µM | 0.0342 µM | 0.0445 µM | 0.0264 µM | 0.0902 µM | 0.0136 µM | 0.033 µM | 0.00847 µM | 0.0161 µM | 0.0151 µM | 0.00467 µM | 0.00821 µM | 0.0107 µM | 0.00768 µM | 0.016 µM | 0.0052 µM | 0.00818 µM | 0.00432 µM |
| C=C1C(=O)OC2C1C(OC(=O)/C(C)=C/C)CC(O)(CCl)C1C(O)C3OC3(C)C21O (centres undefined) | > 50 µM | > 50 µM | > 50 µM | > 50 µM | > 50 µM | > 50 µM | > 50 µM | 39 µM | > 50 µM | > 50 µM |  |  |  |  |  |  |  |  |  |  |
| CS[C@]12C(=O)C[C@@]3(C)[C@@H](CC[C@]3(O)C(=O)CO)[C@@H]1CCC1=CC(=O)CC[C@@]12C | > 100 µM | 80.2 µM | > 100 µM | > 100 µM | > 100 µM | > 100 µM | > 100 µM | > 100 µM | > 100 µM | > 100 µM |  |  |  |  |  |  |  |  |  |  |
| CCN(CC)Cc1ccc(Nc2nccc(-c3cnn4ncccc34)n2)cc1 | 0.0845 µM | 0.129 µM | 0.0529 µM | > 25 µM | 0.102 µM | > 25 µM | 0.0727 µM | > 12.9 µM | 0.0704 µM | > 25 µM | 0.0291 µM | 0.0333 µM | 0.0114 µM | 0.0209 µM | 0.0101 µM | 0.0148 µM | 0.015 µM | 0.0133 µM | 0.0208 µM | 0.0145 µM |
| O=c1c2ccccc2nc(-c2ccccc2)n1NC1OC(CO)C(O)C(O)C1O (centres undefined) | > 100 µM | > 100 µM | > 100 µM | > 100 µM | > 100 µM | > 100 µM | > 100 µM | > 100 µM | > 100 µM | > 100 µM |  |  |  |  |  |  |  |  |  |  |
| Clc1nc(Cl)c2ncn(C/C=C/COc3cccc(OC/C=C/Cn4cnc5c(Cl)nc(Cl)nc54)c3)c2n1 | > 100 µM | > 100 µM | > 100 µM | > 100 µM | > 100 µM | > 100 µM | > 100 µM | > 100 µM | > 100 µM | > 100 µM | 32.7 µM | 42.1 µM | 57.1 µM | > 100 µM | 56.5 µM | 31 µM | > 100 µM | > 100 µM | > 100 µM | 99.6 µM |
| C=C1C(=O)OC2/C=C(/C)C(OC(C)=O)CC(O)/C(C)=C\C(OC(=O)/C(C)=C\C)C12 (centres undefined) | > 100 µM | > 100 µM | > 100 µM | > 100 µM | > 100 µM | > 100 µM | > 100 µM | 35.4 µM | > 100 µM | > 100 µM |  |  |  |  |  |  |  |  |  |  |
| Cn1cc(C2=C(c3cccc(OCC(O)CO)c3)C(=O)NC2=O)c2ccccc21 (centres undefined) | > 25 µM | > 25 µM | > 25 µM | > 25 µM | > 25 µM | > 25 µM | > 25 µM | > 25 µM | > 25 µM | > 25 µM | > 25 µM | > 25 µM | 5.86 µM | > 25 µM | > 25 µM | > 25 µM | > 25 µM | > 25 µM | > 25 µM | > 25 µM |
| C1=C2/CC[C@H](Sc3ccccc3)[C@H]2C2(CCCCC/1)OCCO2 | 93 µM | 41.3 µM | > 100 µM | 79.6 µM | > 100 µM | 66.4 µM | > 100 µM | > 100 µM | 33.2 µM | > 100 µM |  |  |  |  |  |  |  |  |  |  |
| O=CN/C=C/c1ccc(O)c(O)c1 | > 100 µM | > 100 µM | > 100 µM | > 100 µM | > 100 µM | > 100 µM | > 100 µM | > 100 µM | > 100 µM | > 100 µM |  |  |  |  |  |  |  |  |  |  |
| CCOC(=O)NC(=O)c1cn(CCN2CCN(c3ncnc4nc[nH]c34)CC2)c(=O)[nH]c1=O | > 100 µM | > 100 µM | > 100 µM | > 100 µM | > 100 µM | > 100 µM | > 100 µM | > 100 µM | > 100 µM | > 100 µM |  |  |  |  |  |  |  |  |  |  |
| Cc1ccc(N2C(=O)C3C=CC(n4[nH]c(=O)n(Cc5ccccc5)c4=O)CC3C2=O)cc1 (centres undefined) | > 100 µM | > 100 µM | > 100 µM | > 100 µM | > 100 µM | > 100 µM | > 100 µM | > 100 µM | > 100 µM | > 100 µM |  |  |  |  |  |  |  |  |  |  |
| C1CN(SSN2CCOCC2)CCO1 | 48.9 µM | > 100 µM | > 100 µM | > 100 µM | > 100 µM | > 100 µM | > 100 µM | 37.1 µM | > 100 µM | > 100 µM | 20.6 µM | > 100 µM | 44.1 µM | 39 µM | 43.6 µM | 43.9 µM | > 100 µM | 21 µM | > 100 µM | 78.5 µM |
| Cc1cccc(C(C)C)c1NC(=O)CC1C(=O)Nc2ccccc2S1(=O)=O (centres undefined) | > 64.2 µM | > 56.2 µM | > 69 µM | > 73.1 µM | 73.9 µM | 30.2 µM | > 56 µM | 39.5 µM | > 62 µM | > 100 µM |  |  |  |  |  |  |  |  |  |  |
| CC(C)(O)CC(=O)NCCn1ccc2ncnc(Nc3ccc(Oc4cccc(C(F)(F)F)c4)c(Cl)c3)c21 | > 10 µM | > 10 µM | > 10 µM | > 10 µM | > 10 µM | > 10 µM | > 10 µM | > 10 µM | > 10 µM | > 10 µM | 4.17 µM | 3.85 µM | 4.72 µM | 2.55 µM | 3.67 µM | 3.26 µM | 4.43 µM | 4.01 µM | 8.66 µM | 4.7 µM |
| COc1ccc(/C=C2\CCCC3=C2NC(N)=NC3c2ccc(OC)c(OC)c2)cc1OC (centres undefined) | > 73.2 µM | > 100 µM | 13.8 µM | > 100 µM | > 100 µM | > 100 µM | > 100 µM | > 100 µM | 81.9 µM | > 66.9 µM | 6.25 µM | > 100 µM | 2.41 µM | > 54.5 µM | 6.87 µM | 2.42 µM | 21.6 µM | 14.2 µM | 9.59 µM | 4.04 µM |
| CN(C)c1ccc2c(c1)OC(N)=C(C#N)C2c1ccc2c(c1)CCO2 (centres undefined) | 11.4 µM | > 100 µM | > 49.4 µM | > 100 µM | > 42 µM | > 52.6 µM | 29.5 µM | 25.1 µM | 24.7 µM | > 76.7 µM | 0.0417 µM | 0.469 µM | 0.0812 µM | 1.13 µM | < 0.0309 µM | 0.216 µM | 1.92 µM | 0.0502 µM | 0.0962 µM |  |
| O=C(COc1ccc(/C=C2\Oc3ccccc3C2=O)cc1)Nc1nc2c(s1)CCCC2 | > 100 µM | 52.3 µM | 0.609 µM | > 100 µM | 27.5 µM | 0.309 µM | > 68.7 µM | 31.7 µM | 50.2 µM | 97.9 µM | 16.1 µM | 16 µM | 0.221 µM | 51.2 µM | 0.403 µM | 0.148 µM | 27.8 µM | 0.818 µM | 4.87 µM | 22.5 µM |
| C/C(CC(=O)Nc1ccc(Cl)cc1)=N\NC(N)=S | > 100 µM | 75.7 µM | > 100 µM | > 100 µM | > 100 µM | > 100 µM | > 100 µM | > 100 µM | > 100 µM | > 100 µM |  |  |  |  |  |  |  |  |  |  |
| CN1c2ccccc2N(C)C23N(C)c4ccccc4N(C)C12N(C)c1ccccc1N3C (centres undefined) | > 100 µM | > 100 µM | > 100 µM | > 100 µM | > 100 µM | > 100 µM | > 100 µM | > 100 µM | > 100 µM | > 100 µM |  |  |  |  |  |  |  |  |  |  |
| Cc1c2c(nn1C)CSCc1cc(n(C)n1)CSc1cc(c3ccccc3c1)OCCCc1c(C(=O)O)n(C)c3c-2c(Cl)ccc13 | 11.1 µM | 13.4 µM | 18 µM | 17.6 µM | 11.9 µM | 10.6 µM | 12.9 µM | 17.8 µM | 0.429 µM | 17.3 µM | 2.68 µM | 3.15 µM | 4.35 µM | 5.11 µM | 3.3 µM | 1.73 µM | 3.61 µM | 4.4 µM | 0.165 µM | 4.62 µM |
| COC(=O)c1cc(Cl)ccc1NC(=O)c1ccc([N+](=O)[O-])cc1 | 90.7 µM | > 100 µM | 20.7 µM | > 100 µM | 51.7 µM | 80.4 µM | > 100 µM | 38.2 µM | > 100 µM | 38.8 µM |  |  |  |  |  |  |  |  |  |  |
